melting point [°C] | SMILES
305 | COC(=O)c1cccc(NC(=O)Nc2nnc(-c3cc(Cl)cc(Cl)c3O)s2)c1 [Example 3, 3-{3-[5-(3,5-Dichloro-2-hydroxy-phenyl)-[1,3,4]thiadiazol-2-yl]-ureido}-benzoic Acid Methyl Ester]
330 | COC(=O)c1ccc(NC(=O)Nc2nnc(-c3cc(Cl)cc(Cl)c3O)s2)cc1 [Example 4, 4-{3-[5-(3,5-Dichloro-2-hydroxy-phenyl)-[1,3,4]thiadiazol-2-yl]-ureido}-benzoic Acid Methyl Ester]
